Legend:
[1] = target: T1, ENaC (Homo sapiens, UniProt P37088+P51168+P51170); test: Transepithelial voltage under thin film conditions in human bronchial epithelial cultures (microelectrode); format: cell-based
T1 construct: endogenous in cells; host or cells: primary human bronchial epithelial cultures
T1 sequence (P37088 1-669): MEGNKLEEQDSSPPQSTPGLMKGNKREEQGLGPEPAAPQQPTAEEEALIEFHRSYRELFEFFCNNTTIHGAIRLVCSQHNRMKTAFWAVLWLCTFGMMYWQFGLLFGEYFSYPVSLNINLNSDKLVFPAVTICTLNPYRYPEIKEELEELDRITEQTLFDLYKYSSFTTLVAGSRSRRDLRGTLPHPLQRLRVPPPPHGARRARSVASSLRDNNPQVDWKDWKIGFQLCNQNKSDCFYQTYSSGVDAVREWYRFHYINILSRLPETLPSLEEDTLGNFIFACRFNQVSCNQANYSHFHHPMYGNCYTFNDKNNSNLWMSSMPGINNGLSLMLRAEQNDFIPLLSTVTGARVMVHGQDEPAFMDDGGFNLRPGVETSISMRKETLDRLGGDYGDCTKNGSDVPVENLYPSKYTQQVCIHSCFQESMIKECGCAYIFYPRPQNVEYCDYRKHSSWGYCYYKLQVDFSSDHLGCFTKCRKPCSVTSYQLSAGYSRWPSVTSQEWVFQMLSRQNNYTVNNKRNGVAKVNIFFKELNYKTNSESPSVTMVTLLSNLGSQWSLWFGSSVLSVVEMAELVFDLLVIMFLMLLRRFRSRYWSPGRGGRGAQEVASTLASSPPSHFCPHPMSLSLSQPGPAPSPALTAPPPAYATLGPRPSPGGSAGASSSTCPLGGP
T1 sequence (P51168 1-640): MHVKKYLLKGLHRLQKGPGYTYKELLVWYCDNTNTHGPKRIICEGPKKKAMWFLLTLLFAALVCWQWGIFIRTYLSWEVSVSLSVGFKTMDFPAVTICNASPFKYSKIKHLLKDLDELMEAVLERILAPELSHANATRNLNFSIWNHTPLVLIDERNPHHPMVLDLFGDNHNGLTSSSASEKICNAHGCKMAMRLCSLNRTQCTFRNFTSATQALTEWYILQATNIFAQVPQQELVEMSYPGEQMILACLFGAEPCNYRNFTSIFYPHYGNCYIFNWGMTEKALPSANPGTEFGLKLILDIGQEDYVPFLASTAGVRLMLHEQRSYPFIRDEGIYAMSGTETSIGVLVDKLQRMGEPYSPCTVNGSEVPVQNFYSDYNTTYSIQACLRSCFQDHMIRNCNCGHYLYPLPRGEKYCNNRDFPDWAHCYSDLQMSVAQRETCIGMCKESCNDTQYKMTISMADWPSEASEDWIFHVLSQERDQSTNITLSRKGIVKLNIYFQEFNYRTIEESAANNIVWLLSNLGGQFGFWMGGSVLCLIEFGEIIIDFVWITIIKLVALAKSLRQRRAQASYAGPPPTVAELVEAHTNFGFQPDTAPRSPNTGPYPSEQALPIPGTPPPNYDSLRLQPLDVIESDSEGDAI
T1 sequence (P51170 1-649): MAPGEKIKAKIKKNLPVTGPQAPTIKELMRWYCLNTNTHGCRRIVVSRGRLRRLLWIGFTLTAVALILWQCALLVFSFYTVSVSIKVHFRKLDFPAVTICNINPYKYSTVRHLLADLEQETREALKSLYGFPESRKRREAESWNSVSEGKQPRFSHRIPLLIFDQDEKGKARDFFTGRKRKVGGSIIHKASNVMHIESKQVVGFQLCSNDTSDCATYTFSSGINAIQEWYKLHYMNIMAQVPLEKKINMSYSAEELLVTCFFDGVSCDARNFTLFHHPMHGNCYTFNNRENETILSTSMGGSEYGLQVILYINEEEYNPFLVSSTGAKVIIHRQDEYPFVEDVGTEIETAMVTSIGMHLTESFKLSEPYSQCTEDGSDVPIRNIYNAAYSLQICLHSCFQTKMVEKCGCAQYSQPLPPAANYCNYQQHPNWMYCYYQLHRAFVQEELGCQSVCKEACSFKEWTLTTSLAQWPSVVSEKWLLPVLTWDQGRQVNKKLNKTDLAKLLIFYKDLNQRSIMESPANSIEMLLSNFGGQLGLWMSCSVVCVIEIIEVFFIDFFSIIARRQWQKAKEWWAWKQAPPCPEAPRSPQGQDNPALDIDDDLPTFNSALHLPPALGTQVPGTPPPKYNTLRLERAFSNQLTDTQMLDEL
Description: (§1) Tissue procurement and cell culture: Cells were harvested by enzymatic digestion from human bronchial tissue as previously described under a protocol approved by the UNC School of Medicine IRB (Tarran et al., J. Gen. Physiol. 127:591 (2006)). Human excess donor lungs and excised recipient lungs were obtained at the time of lung transplantation from portions of main stem or […] bronchi and cells were harvested by enzymatic digestion. All preparations were maintained at an air-liquid interface in a modified bronchial epithelial medium and used 2-5 weeks after seeding on 12 mm T-Clear inserts (Corning Costar) coated with human placental type VI collagen (Sigma). Phosphate buffered saline (PBS) was used for washing human bronchial epithelial culture mucosal surfaces.
(§2) Microelectrode studies. A single-barreled potential difference-sensing electrode was placed in the airway surface liquid by micromanipulator and used in conjunction with a macroelectrode in the serosal solution to measure transepithelial voltage using a voltmeter (World Precision Instruments). […] Transepithelial resistance was routinely measured using the EVOM system (WPI) as previously described (Tarran et al., J. Gen. Physiol. 127:591 (2006)).

[2] = test system: trypsin; test: Cell-free fluorogenic assay of BGAR-MCA cleavage by trypsin; format: biochemical; conditions: 2 U/ml aprotinin
Procedure: (§3) For cell-free assays, reactions were carried out in 50 μl Ringer in a 96 well plate format with 100 μM BGAR-MCA. To measure endogenous protease activity in human bronchial epithelial cultures, 30 μl Ringer with 100 μM BGAR-MCA were placed directly onto the mucosal surfaces of human bronchial epithelial cultures grown on 12 mm T-clear inserts and the cultures were assayed in 12 well plates.

[3] = test system: serine proteases; test: Endogenous protease activity (BGAR-MCA cleavage) on mucosal surfaces of human bronchial epithelial cultures; format: cell-based
Procedure: as §3

[4] = target: T1, ENaC; test: Transepithelial electrical resistance of human bronchial epithelial cultures (EVOM); format: cell-based; conditions: washed cultures; 50 ng/ml SPLUNC1 for 30 min or amiloride; effects not additive
Description: as §1, §2

[5] = target: T2, αENaC (Homo sapiens, UniProt P37088); test: Texas red-SPLUNC1 binding assay on JME cells expressing yfp-αENaC; conditions: polarized JME cells
T2 construct: expressed in transfected cells; host or cells: JME nasal epithelial cells (passaged, no endogenous ENaC), lentiviral vector pQCXIN
T2 sequence (P37088 1-669): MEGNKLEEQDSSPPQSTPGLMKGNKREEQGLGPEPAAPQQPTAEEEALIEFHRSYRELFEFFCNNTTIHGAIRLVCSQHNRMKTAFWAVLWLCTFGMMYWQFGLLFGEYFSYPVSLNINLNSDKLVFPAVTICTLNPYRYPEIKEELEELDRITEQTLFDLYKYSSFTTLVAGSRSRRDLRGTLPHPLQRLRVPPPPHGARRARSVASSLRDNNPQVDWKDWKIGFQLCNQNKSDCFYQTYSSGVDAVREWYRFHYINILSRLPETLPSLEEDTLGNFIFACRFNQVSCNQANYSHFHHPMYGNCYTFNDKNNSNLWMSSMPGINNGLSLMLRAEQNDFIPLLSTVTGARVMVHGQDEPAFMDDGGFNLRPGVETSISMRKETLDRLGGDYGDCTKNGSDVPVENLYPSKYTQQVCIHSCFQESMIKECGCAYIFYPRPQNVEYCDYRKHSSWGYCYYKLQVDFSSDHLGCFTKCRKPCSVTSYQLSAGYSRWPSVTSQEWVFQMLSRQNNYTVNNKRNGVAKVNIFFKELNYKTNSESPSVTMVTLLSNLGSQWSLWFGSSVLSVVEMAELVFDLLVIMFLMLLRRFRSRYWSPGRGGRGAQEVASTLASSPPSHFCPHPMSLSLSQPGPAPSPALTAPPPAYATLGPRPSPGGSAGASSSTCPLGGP
Procedure: JME cells were incubated with varying concentrations of Texas red-labeled SPLUNC1 for 30 min followed by a 5× wash with PBS. After this time images were acquired with a Nikon Ti-S inverted microscope and were quantified to obtain specific and non-specific binding using Image J. Data were then fitted with a Hill Plot to obtain the Kd.
JME nasal epithelial cells express functional ENaCs (Tong et al., Am. J. Physiol. Lung Cell. Mol. Physiol. 287:L928 (2004)). However, this attribute is lost after several passages. Thus, passaged JME cells that no longer expressed ENaC were stably infected with a lentivirus containing yfp-αENaC or an empty vector as a control and the presence or absence of αENaC was confirmed using an antibody that was constructed “in-house” that was directed against αENaC (FIG. 8).
Recombinant SPLUNC1 was labeled with Texas red according to the manufacturer's instructions (Pierce) and was freshly labeled on the day of each binding experiment. […] After this time yfp (514 nm excitation) and Texas red fluorescence (590 nm excitation) were imaged under a 60× water objective on a Nikon Ti-S inverted microscope equipped with an Orca CCD camera (Hamamatsu) switchable filter wheels (Ludl). Background fluorescence was subtracted from all images and the mean thresholded intensity was quantified to obtain specific and non-specific binding using Image J.

aprotinin [reference compound]
rate of inhibition of the transepithelial voltage ([1]; rSPLUNC1 vs aprotinin addition, effects not additive): identical rates
inhibition of trypsin activity [2]: ~100%
spontaneous BGAR-MCA cleavage on mucosal surfaces [3]: inhibited

N=C(N)NC(=O)c1nc(Cl)c(N)nc1N [amiloride, reference compound]
reduction of the transepithelial voltage ([1]; n=12, FIG. 4 legend: 100 mM amiloride): 54%
increase of the transepithelial electrical resistance [4]: ~33%

B1: Texas red-rSPLUNC1: recombinant SPLUNC1 labeled with Texas red (conjugate)
chain: QFGGLPVPLDQTLPLNVNPALPLSPTGLAGSLTNALSNGLLSGGLLGILENLPLLDILKPGGGTSGGLLGGLLGKVTSVIPGLNNIIDIKVTDPQLLELGLVQSPDGHRLYVTIPLGIKLQVNTPLVGASLLRLAVKLDITAEILAVRDKQERIHLVLGDCTHSPGSLQISLLDGLGPLPIQGLLDSLTGILNKVLPELVQGNVCPLVNEVLRGLDITLVHDIVNMLIHGLQFVIKV
modifications: left off: small tags and cut ends
Kd ([5]; 30 min incubation, Hill fit): 0.055 µg/mL
specific (yfp-αENaC) binding vs non-specific (empty vector) binding ([5]; binding isotherm): significantly greater and saturable

Source: US9549967B2, “Regulation of sodium channels by PLUNC proteins” (The University of North Carolina at Chapel Hill, priority 2009, dated 2017)
